# Measured values taken from paper PMC13347698 (Analytical Chemistry, 2026).
# Assays:
# [1] = biological target: dimeric C145A 3CL^pro single mutant (Severe acute respiratory syndrome coronavirus 2, UniProt P0DTD1, C3408A); type: binding, SARS-CoV-2
# [2] = biological target: monomeric E290A/R298A 3CL^pro double mutant (Severe acute respiratory syndrome coronavirus 2, UniProt P0DTD1, E3553A/R3561A); type: binding, SARS-CoV-2
smiles,measurement,setting,value
CC(C)(C)c1ccc(N(C(=O)c2c[nH]cn2)[C@@H](C(=O)NC2CCCCC2)c2cccnc2)cc1 [X77],binding heat detected,[1],No measurable heat was detected
same,binding detectable,[2],not
